Tests used:
CDK1/Cyclin B1 = CDK1/Cyclin B1 (Homo sapiens, UniProt P06493); experiment: CDK1/Cyclin B1 TR-FRET biochemical assay, 1 mM ATP; settings: 0.15 μM Rb (Ser780)-biotin substrate, 90 min reaction, Table 2
Method: (§1) Compounds disclosed herein were tested for inhibition of CDK2/Cyclin E1 or CDK1/Cyclin B kinase in an assay based on the time-resolved fluorescence-resonance energy transfer (TR-FRET) methodology. The assay was carried out in 384-well low volume black plates in a reaction mixture containing CDK2/Cyclin E1 or CDK1/Cyclin B1, 1 mM ATP for CDK2/Cyclin E1 and CDK1/Cyclin B1, 0.15 μM Rb (Ser780)-biotin substrate and 0-10 μM compound in buffer containing 50 mM HEPES pH7.0, 0.02% NaN3, 0.01% BSA, 0.1 mM Orthovanadate, 50 mM MgCl2, 1 mM DTT and 0.005% Tween-20. The kinase was incubated with compound for 60 minutes at room temperature and the reaction was initiated by the addition of ATP and Rb (Ser780)-biotin substrate. After reaction at room temperature for 90 minutes, an equal volume of stop/detection solution was added according to the manufacture's instruction (Cisbio Bioassays). The stop/detection solution contained Streptavidin-XL665 and Anti-pRb (Ser780) mAb-Eu Cryptate in Detection buffer (Cisbio Bioassays). Plates were incubated at room temperature for 60 minutes, and the TR-FRET signals (ex337 nm, em665 nm/620 nm) were recorded on a PHERAstar FSX plate reader (BMG Labtech). The inhibition percentage of CDK2/Cyclin E1 or CDK1/Cyclin B1 kinase activity in presence of increasing concentrations of compounds was calculated based on the ratio of fluorescence at 665 nm to that at 620 nm. The IC50 for each compound was derived from fitting the data to the four-parameter logistic equation by Dotmatics.

CDK2/Cyclin E1 = CDK2/Cyclin E1 (Homo sapiens, UniProt P24941); experiment: CDK2/Cyclin E1 TR-FRET biochemical assay, 1 mM ATP; settings: 0.15 μM Rb (Ser780)-biotin substrate, 90 min reaction, Table 2
Method: as §1

CDK1/Cyclin B1, sequence (P06493 whole entry): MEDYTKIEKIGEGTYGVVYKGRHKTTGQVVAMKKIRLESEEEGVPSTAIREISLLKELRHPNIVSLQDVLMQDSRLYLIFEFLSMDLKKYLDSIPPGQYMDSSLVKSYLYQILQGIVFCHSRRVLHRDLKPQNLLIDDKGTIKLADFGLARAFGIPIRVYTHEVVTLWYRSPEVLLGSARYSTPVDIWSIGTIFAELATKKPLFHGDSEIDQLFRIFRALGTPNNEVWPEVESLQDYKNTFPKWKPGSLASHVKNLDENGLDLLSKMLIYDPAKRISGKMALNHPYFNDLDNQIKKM
CDK1/Cyclin B1, sequence (P14635 whole entry partner): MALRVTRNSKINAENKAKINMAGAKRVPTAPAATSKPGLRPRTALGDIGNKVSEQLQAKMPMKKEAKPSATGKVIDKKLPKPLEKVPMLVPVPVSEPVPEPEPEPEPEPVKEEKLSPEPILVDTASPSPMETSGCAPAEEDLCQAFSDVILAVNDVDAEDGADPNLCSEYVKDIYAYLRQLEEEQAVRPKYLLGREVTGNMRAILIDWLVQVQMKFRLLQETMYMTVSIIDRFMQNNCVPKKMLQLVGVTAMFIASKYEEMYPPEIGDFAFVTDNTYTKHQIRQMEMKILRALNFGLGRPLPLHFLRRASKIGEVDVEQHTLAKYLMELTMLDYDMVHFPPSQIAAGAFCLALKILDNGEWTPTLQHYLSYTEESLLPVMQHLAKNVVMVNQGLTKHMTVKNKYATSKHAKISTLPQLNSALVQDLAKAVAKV

IC50 (CDK1/Cyclin B1) [nM] | IC50 (CDK2/Cyclin E1) [nM] | SMILES
> 10000 | 1040 | Cc1cccc(C2CCC(c3cc(Nc4ccc5c(c4F)CS(=O)(=O)N5)n[nH]3)C2)n1 (stereo not drawn) [Example 159, 4-fluoro-5-((5-(3-(6-methylpyridin-2-yl)cyclopentyl)-1H-pyrazol-3-yl)amino)-1,3-dihydrobenzo[c]isothiazole 2,2-dioxide]
> 10000 | > 10000 | CC(C)(C)c1ccnnc1O[C@H]1CC[C@H](c2cc(Nc3ccc4c(c3F)CNS4(=O)=O)n[nH]2)C1 (relative stereo) [Example 36, trans-5-((5-(3-((4-(tert-butyl)pyridazin-3-yl)oxy)cyclopentyl)-1H-pyrazol-3-yl)amino)-4-fluoro-2,3-dihydrobenzo[d]isothiazole 1,1-dioxide]
> 10000 | 813 | CC(C)(O)Cn1cc(C2CCC(c3cc(Nc4ccc5c(c4F)CNS5(=O)=O)n[nH]3)C2)cn1 (stereo not drawn) [Example 102, 4-fluoro-5-((5-(3-(1-(2-hydroxy-2-methylpropyl)-1H-pyrazol-4-yl)cyclopentyl)-1H-pyrazol-3-yl)amino)-2,3-dihydrobenzo[d]isothiazole 1,1-dioxide]
> 10000 | 93 | CC(C)c1cnc(C2CCC(c3cc(Nc4ccc(S(N)(=O)=O)cc4F)n[nH]3)C2)o1 (stereo not drawn) [Example 7, 3-fluoro-4-((5-(3-(5-isopropyloxazol-2-yl)cyclopentyl)-1H-pyrazol-3-yl)amino)benzenesulfonamide]
202 | 0.9 | CC(C)(C)c1cnc(C2CCC(c3cc(Nc4ccc5c(c4F)CCS(=O)(=O)N5)n[nH]3)C2)o1 (stereo not drawn) [Example 166, 6-((5-(3-(5-(tert-butyl)oxazol-2-yl)cyclopentyl)-1H-pyrazol-3-yl)amino)-5-fluoro-3,4-dihydro-1H-benzo[c][1,2]thiazine 2,2-dioxide]
> 10000 | 1740 | Cc1cc(C(C)(C)C)cc(C2CCC(c3cc(Nc4ccc5c(c4F)CNS5(=O)=O)n[nH]3)C2)n1 (stereo not drawn) [Example 123, 5-((5-(3-(4-(tert-butyl)-6-methylpyridin-2-yl)cyclopentyl)-1H-pyrazol-3-yl)amino)-4-fluoro-2,3-dihydrobenzo[d]isothiazole 1,1-dioxide]
> 10000 | 2870 | CC(C)(C)c1cnc(C2CCC(c3cc(Nc4cc5c(cc4F)S(=O)(=O)NC5)n[nH]3)C2)o1 (single isomer, unassigned) [Example 17d, 5-((5-(3-(5-(tert-butyl)oxazol-2-yl)cyclopentyl)-1H-pyrazol-3-yl)amino)-6-fluoro-2,3-dihydrobenzo[d]isothiazole 1,1-dioxide]
1100 | 8 | CC(C)c1cnc(C2CCC(c3cc(Nc4ccc5c(c4F)CCS(=O)(=O)N5)n[nH]3)C2)o1 (stereo not drawn) [Example 167, 5-fluoro-6-((5-(3-(5-isopropyloxazol-2-yl)cyclopentyl)-1H-pyrazol-3-yl)amino)-3,4-dihydro-1H-benzo[c][1,2]thiazine 2,2-dioxide]
3500 | 4.3 | CC(C)(C)c1csnc1O[C@@H]1CC[C@H](c2cc(Nc3ccc4c(c3F)CNS4(=O)=O)n[nH]2)C1 (relative stereo) [Example 56, cis-5-((5-(3-((4-(tert-butyl)isothiazol-3-yl)oxy)cyclopentyl)-1H-pyrazol-3-yl)amino)-4-fluoro-2,3-dihydrobenzo[d]isothiazole 1,1-dioxide]
> 10000 | 7710 | CC(C)(C)c1cnc(C2CCC(c3cc(Nc4cc5c(cc4F)S(=O)(=O)NC5)n[nH]3)C2)o1 (single isomer, unassigned) [Example 17b, 5-((5-(3-(5-(tert-butyl)oxazol-2-yl)cyclopentyl)-1H-pyrazol-3-yl)amino)-6-fluoro-2,3-dihydrobenzo[d]isothiazole 1,1-dioxide]
> 10000 | 2370 | CC(C)(C)c1cc(O[C@@H]2CC[C@H](c3cc(Nc4ccc5c(c4F)CNS5(=O)=O)n[nH]3)C2)ncn1 (relative stereo) [Example 38, cis-5-((5-(3-((6-(tert-butyl)pyrimidin-4-yl)oxy)cyclopentyl)-1H-pyrazol-3-yl)amino)-4-fluoro-2,3-dihydrobenzo[d]isothiazole 1,1-dioxide]
> 10000 | 3990 | Cc1cccc(C2CCC(c3cc(Nc4cc5c(cc4F)S(=O)(=O)NC5)n[nH]3)C2)n1 (stereo not drawn) [Example 12, 6-fluoro-5-((5-(3-(6-methylpyridin-2-yl)cyclopentyl)-1H-pyrazol-3-yl)amino)-2,3-dihydrobenzo[d]isothiazole 1,1-dioxide]
> 10000 | 42 | CC(C)c1cnc(C2CCC(c3cc(Nc4cc5c(cc4F)S(=O)(=O)NC5)n[nH]3)C2)o1 (stereo not drawn) [Example 18, 6-fluoro-5-((5-(3-(5-isopropyloxazol-2-yl)cyclopentyl)-1H-pyrazol-3-yl)amino)-2,3-dihydrobenzo[d]isothiazole 1,1-dioxide]
6850 | 16 | CC1(c2cnc(C3CCC(c4cc(Nc5ccc6c(c5F)CNS6(=O)=O)n[nH]4)C3)o2)CC1 (stereo not drawn) [Example 112, 4-fluoro-5-((5-(3-(5-(1-methylcyclopropyl)oxazol-2-yl)cyclopentyl)-1H-pyrazol-3-yl)amino)-2,3-dihydrobenzo[d]isothiazole 1,1-dioxide]
2760 | 40 | CCc1ccnc(C2CCC(c3cc(Nc4ccc5c(c4F)CNS5(=O)=O)n[nH]3)C2)n1 (stereo not drawn) [Example 125, 5-((5-(3-(4-ethylpyrimidin-2-yl)cyclopentyl)-1H-pyrazol-3-yl)amino)-4-fluoro-2,3-dihydrobenzo[d]isothiazole 1,1-dioxide]
2000 | 3 | CC(C)(C)c1cnc(C2CCC(c3cc(Nc4ccc(S(N)(=O)=O)cc4F)n[nH]3)C2)o1 (single isomer, unassigned) [Example 6a, 4-((5-(3-(5-(tert-butyl)oxazol-2-yl)cyclopentyl)-1H-pyrazol-3-yl)amino)-3-fluorobenzenesulfonamide]
537 | 1.5 | CC(C)(O)c1cnc(C2CCC(c3cc(Nc4ccc5c(c4F)CS(=O)(=O)C5)n[nH]3)C2)o1 (stereo not drawn) [Example 179, 4-fluoro-5-((5-(3-(5-(2-hydroxypropan-2-yl)oxazol-2-yl)cyclopentyl)-1H-pyrazol-3-yl)amino)-1,3-dihydrobenzo[c]thiophene 2,2-dioxide]
> 10000 | 3870 | COc1cccc(C2CCC(c3cc(Nc4ccc5c(c4F)CNS5(=O)=O)n[nH]3)C2)n1 (stereo not drawn) [Example 121, 4-fluoro-5-((5-(3-(6-methoxypyridin-2-yl)cyclopentyl)-1H-pyrazol-3-yl)amino)-2,3-dihydrobenzo[d]isothiazole 1,1-dioxide]
135 | 0.6 | CN1c2ccc(Nc3cc([C@H]4CC[C@@H](c5ncc(C(C)(C)C)o5)C4)[nH]n3)cc2CS1(=O)=O [Example 141, 5-((5-((1S,3R)-3-(5-(tert-butyl)oxazol-2-yl)cyclopentyl)-1H-pyrazol-3-yl)amino)-1-methyl-1,3-dihydrobenzo[c]isothiazole 2,2-dioxide]
> 10000 | 7200 | CC(C)(C)c1cnc(C2CCC(c3cc(Nc4ccc5c(c4F)CNS5(=O)=O)n[nH]3)C2)s1 (stereo not drawn) [Example 95, 5-((5-(3-(5-(tert-butyl)thiazol-2-yl)cyclopentyl)-1H-pyrazol-3-yl)amino)-4-fluoro-2,3-dihydrobenzo[d]isothiazole 1,1-dioxide]
2020 | 16 | CC(C)(C)c1cnnc(C2CCC(c3cc(Nc4ccc5c(c4F)CS(=O)(=O)N5)n[nH]3)C2)c1 (stereo not drawn) [Example 163, 5-((5-(3-(5-(tert-butyl)pyridazin-3-yl)cyclopentyl)-1H-pyrazol-3-yl)amino)-4-fluoro-1,3-dihydrobenzo[c]isothiazole 2,2-dioxide]
> 10000 | 1810 | CC(C)c1cnc(C2CCC(c3cc(Nc4ccc5c(c4F)CNS5(=O)=O)n[nH]3)C2)o1 (single isomer, unassigned) [Example 109c, 4-fluoro-5-((5-(3-(5-isopropyloxazol-2-yl)cyclopentyl)-1H-pyrazol-3-yl)amino)-2,3-dihydrobenzo[d]isothiazole 1,1-dioxide]
142 | 1.5 | CC(C)(C)c1ccnc([C@@H]2CC[C@H](c3cc(Nc4ccc5c(c4F)CNS5(=O)=O)n[nH]3)C2)n1 (relative stereo) [Example 127, cis-5-((5-(3-(4-(tert-butyl)pyrimidin-2-yl)cyclopentyl)-1H-pyrazol-3-yl)amino)-4-fluoro-2,3-dihydrobenzo[d]isothiazole 1,1-dioxide]
> 10000 | 564 | CC(C)(O)c1cc(C2CCC(c3cc(Nc4ccc5c(c4F)CNS5(=O)=O)n[nH]3)C2)n[nH]1 (stereo not drawn) [Example 101, 4-fluoro-5-((5-(3-(5-(2-hydroxypropan-2-yl)-1H-pyrazol-3-yl)cyclopentyl)-1H-pyrazol-3-yl)amino)-2,3-dihydrobenzo[d]isothiazole 1,1-dioxide]

From US20260200897A1, “4-((5-(3-(4-(PYRIDIN-2-YL)CYCLOPENTYL)-1H-PYRAZOL-3-YL)AMINO)-BENZENESULFONAMIDE DERIVATIVES AND SIMILAR COMPOUNDS AS CDK INHIBITORS FOR THE TREATMENT OF CANCER” (BeOne Medicines I GmbH, priority 2023, published 2026)
